Columns and labels:
[1] = Bioavalability (PO/IV pharmacokinetic study); assay type: in vivo, Male Balb/c mice; conditions: mice, PO 30 mg/kg vs IV 10 mg/kg
Method: Male Balb/c mice (11-12 weeks old, body weight 23.7 to 30.6 g and average body weight across all groups 26.5 g, SD=1.6 g) are used in this study. The animals are randomly assigned to the treatment groups before the pharmacokinetic study; all animals are fasted for 3 h before dosing. Six time points (IV: 5, 15, 30, 60, 120 and 240 min, and PO: 15, 30, 60, 120, 240, and 360 min) are used in this pharmacokinetic study. Each of the PO and IV time point treatment groups includes 4 animals; there is also control group of 2 animals. Dosing is done according to the treatment schedules outlined in the Table 2. Mice are injected IV with tribrometanol at the dose of 150 mg/kg prior to taking blood. Blood samples are withdrawn from retroorbital sinus and are collected in microcontainers containing K2EDTA. All samples are immediately prepared, flash-frozen and stored at −70° C. until subsequent bioanalysis.
Plasma samples (50 μl) are mixed with 200 μl of IS solution (100 ng/ml in acetonitrile-methanol mixture 1:1, v/v). After mixing by pipetting and centrifuging for 4 min at 6,000 rpm, 2 μl of each supernatant is injected into a LC-MS/MS system.
The concentrations of test compound are determined using a high performance liquid chromatography/tandem mass spectrometry (HPLC-MS/MS) method. […]

[2] = test system: patient derived CLL samples; assay: Growth inhibition of cells derived from patients with CLL; assay type: cell-based; conditions: 27 patient derived CLL isolates; for EC50: Homo sapiens, read-out: median EC50
Method: HeLa, A549 and HCT116 cells were grown in high-glucose Dulbecco's Modified Eagle's Medium (DMEM, Sigma)+10% FBS+1% penicillin and streptomycin+1% L-glutamine, at 37° C. with 5% CO2 and 95% humidity. Cytotoxic screening of the ProQinase panel of 100 cell-lines was performed by ProQinase (Freiburg, Germany). Patient derived CLL isolates were prepared and screened as described by Dietrich et al. (S. Dietrich et al., J Clin Invest, 2018, 128(1), 427-445). Cell viability was determined after 48 hours using the ATP-based CellTiter Glo assay (Promega). Luminescence was measured with a Tecan Infinite F200 Microplate Reader (Tecan Group AG) and with an integration time of 0.2 seconds per well.
The response of 97 tumour samples derived from patients with CLL was investigated. All samples tumor cells were obtained from whole blood, subjected to Ficoll-Isopaque density centrifugation. CD19+B and CD3+ T cells were isolated by positive magnetic cell separation (Miltenyi Biotec). Sorted cells were checked for purity by fluorescence-activated cell sorting (FACS) with CD19/CD20 for healthy control samples and CD19/CD20/CD5 for CLL samples (BD Biosciences). Following sorting, all samples with a CD19/CD20/CD5 purity <98% were subjected to additional sorting, and the average final purity of all sorted samples was >99%. CLL samples with >[…] were not subject to purification.
Cells are incubated for three days with an eight-point three-fold titration series of the test compound from an initial concentration of 30 μM (2000 cells per well in a volume of 50 μl). Cellular viability is estimated by the addition of 25 μL of ATPlite (Perkin Elmer) with the resulting luminescence measured using an EnVision Xcite plate reader (Perkin Elmer).
In addition, the growth inhibitory response of a selection of 27 patient derived CLL isolates (S. Dietrich et al., J Clin Invest, 2018, 128(1), 427-445) against the compounds of examples 64 and 85 was evaluated using the procedure as described above.

EGR1 promoter = assay: EGR1 reporter assay (luciferase) in genomically engineered HeLa cell line; assay type: cell-based; conditions: Homo sapiens; EGR1 reporter HeLa cells, luciferase activity after 24 hours with compound
How it was run: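 HeLa cells with eGFP-P2A-luciferase knocked in by CRISPR behind the endogenous EGR1 promoter, seeded 2000/well in DMEM with 10% FCS for 24 h. Cells treated 24 h with an 11-point 1:3 series from 100 μM initial DMSO dilution. Readout: luciferase bioluminescence.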

| SMILES | oral bioavalability [1] | growth inhibitory response [2] | EC50 [2] | EC50 (EGR1 promoter) |
| --- | --- | --- | --- | --- |
| Cc1cnc(NC(=O)Cc2coc3cc4c(cc23)CCC4)s1 [Example 64, 2-(6,7-Dihydro-5H-cyclopenta[f]benzofuran-3-yl)-N-(5-methylthiazol-2-yl)acetamide] | 9.9% | active against all isolates | 6 µM | 0.01 to 10 µM |
| O=C(Cc1coc2c(Cl)c(Cl)ccc12)Nc1ncc(C(F)(F)F)s1 [Example 85, 2-(6,7-Dichlorobenzofuran-3-yl)-N-[5-(trifluoromethyl)thiazol-2-yl]acetamide] | 40% | active against all isolates | 1.67 µM | 0.01 to 10 µM |
